{
  "source": "patent US8354274B2",
  "about": "“Synthetic surfaces for culturing cells in chemically defined media” (Geron Corporation, priority 2008, dated 2013)",
  "key": {"[1]": {"test_system": "HT-1080 human fibrosarcoma cells", "assay": "HT-1080 cell adhesion assay (crystal violet, absorbance at 570 nm)", "assay_type": "cell-based", "conditions": "for HT-1080 adhesion compared with linear BSP (SEQ ID NO:4)-conjugated (meth)acrylate: cyclic peptide conjugated to Formulation SA1, normalized to fibronectin (FN, 5 mg/mL)-coated surfaces", "source_text": "To evaluate ability of a polypeptide conjugated to embodiments of swellable (meth)acrylate using these conjugation methods to enable cell adhesion and proliferation, peptides Ac-LysTyrGlyArgLysArgLeuGlnValGlnLeuS erIleArgThr-NH2 (SE Q ID NO:22) (AG-73, an adhesive peptide) and Ac-GlyArgGlyGluSerProIleTyrLys-NH2 (SEQ ID NO:30) (RGE, a negative control) were conjugated to swellable (meth)acrylate (as described above) and adhesion of HT-1080 human fibrosarcoma cells to the swellable (meth)acrylate was evaluated. Briefly, Laminin (5 μg/mL, Sigma-Aldrich) control wells were coated for 1 hour at room temperature. All wells were blocked with 1% bovine serum albumin (BSA) in phosphate buffered saline (PBS) for 1 hour at 37° C. Wells were washed briefly with PBS before incubation with 0.1% BSA in Iscove's Modified Dulbecco's Medium (IMDM) prior to cell seeding. HT-1080 human fibrosarcoma cells (ATCC number: CCL-121) were grown in IMDM (Lonza) with 10% FBS (Lonza) to 90% confluency at standard cell culture conditions. Cells were trypsinized and allowed to recover in IMDM with 10% FBS for 30 minutes at 37° C., 5% CO2. After recovery, cells were washed and resuspended in 0.1% BSA in IMDM and seeded on peptide-conjugated plates at a density of 30,000 cells/well. Cell adhesion was allowed to take place for 1 hour at standard cell culture conditions. The media was aspirated from the wells and adherent cells were fixed and stained in 50 μL of 0.2% crystal violet in 20% methanol for 8 minutes at room temperature. Cellular absorption of crystal violet was quantified through addition of 1% SDS in H2O for 5 minutes prior to absorbance measurement at 570 nm. For this assay, after polypeptide conjugation the remaining NHS esters on the swellable (meth)acrylate were reacted with ethanolamine or aminopropyl morpholine to reduce uptake of crystal violet dye by the swellable (meth)acrylate."}, "[2]": {"test_system": "H7 hES cells", "assay": "AttoPhos screening (alkaline phosphatase activity) of undifferentiated hES cells in chemically defined medium", "assay_type": "cell-based, human", "conditions": "for support of culture of undifferentiated stem cells (AttoPhos): peptides conjugated to Formulation SA1 at 10, 100 and 1000 μM input concentration", "protocol": "All experimental plates were sterilized prior to the cell seeding by spraying with 70% ETOH, drying in a laminar hood, and washing five times with 200 μl Dulbecco's Phosphate Buffered Saline (DPBS). H7 hES cells were seeded on peptide conjugated swellable (meth)acrylate (SAP) surfaces at a density of 35,000 cells/well (96-well plate) in 100 μl of chemically defined medium Xvivo10 (Lonza, Cat #04-743Q) and supplemented with 80 ng/ml basic fibroblast growth factor (bFGF) (R&D systems, Cat #234-FSE/CF) and 0.5 ng/ml transforming growth factor-β1 (TGFβ1) (R&D systems, Cat. #240B). MATRIGEL™ (MG)-coated wells were used as positive control for adhesion of undifferentiated hES cells. Cells were cultured for 48 hrs under standard cell culture conditions (37° C. with 5% CO2) and then were fixed and processed for AttoPhos assay to measure alkaline phosphatase activity, which is a known marker for undifferentiated hES cells, and/or BCIP staining as described below.\nAttoPhos screening was performed as follows. Briefly, at the end of incubation time, cells were rinsed with 150 μl of DPBS and fixed with 4% paraformaldehyde for 10 min at room temperature (70 μl/well of 96-well plate). The cells were washed once with 150 μl of DPBS, and treated for 10 min with 100 μl of AttoPhos fluorescent substrate for alkaline phosphatase (Promega) (diluted 1:3 in DPBS) protected from light. AttoPhos fluorescent intensity at 485/535 nm was obtained using Victor 3 microplate reader (Perklin Elmer). AttoPhos fluorescent intensity for experimental surfaces was expressed as % of MATRIGEL™ control."}, "[3]": {"test_system": "HepG2/C3A cells", "assay": "Serum-free attachment of HepG2/C3A cells (LDH activity, absorbance at 490 nm)", "assay_type": "cell-based", "conditions": "peptide conjugated to SA layer, 24 hours", "protocol": "HepG2/C3A cells (ATCC # CRL-10741) were plated at 25,000 cells per well in 100 μl media in triplicate on SAP surfaces, BD BioCoat™ Collagen I and Corning CellBind® treated Topas™ in a 96 well format and cultured at in Eagle's Minimum Essential Medium (ATCC #30-2003) supplemented with 1% penicillin-streptomycin (Invitrogen #15140-155). The culture medium was not supplemented with fetal bovine serum (as recommended by the cell line supplier) nor was the SAP surface exposed to fetal bovine serum. The culture plates were incubated at 37° C., in 5% CO2 and 95% relative humidity for 24 hours. The cell culture plates having the SA surfaces were prepared as described in EXAMPLE 1. Peptides were conjugated according to EXAMPLE 2. […] The line in FIG. 24 indicates 75% performance of cells on Collagen 1.\nThe attachment of the HepG2/C3A cells was determined using a Cytotoxicity Assay (Promega CytoTox 96® Non-Radioactive Cytotoxicity Assay # G1780) which estimates the number of living cells attached to the culture surfaces. After 24 hours of in culture, the cells were vigorously washed with phosphate buffer, lysed via the introduction of the lysis buffer solution and incubation at 37 C for 1 hour to release lactate dehydrogenase (LDH) enzyme from the viable cells that remain attached to the culture surfaces. The biological activity of the released lactate dehydrogenase enzyme was measured via absorbance at 490 nm using a plate reader (Victor 3 from PerkinElmer)."}, "[4]": {"conditions": "peptide conjugated to swellable (meth)acrylate, 1 hour adhesion, OD570 nm normalized to Laminin"}},
  "note": "Bridges are numbered along the chain shown (N, C = ends). Where no end group is shown, it is not given here.",
  "data": [
    {"substance": "Ac-GlyArgGlyGluSerProIleTyrLys-NH2 (Ac-GRGESPIYK-NH2) [reference compound]", "values": [
      {"measurement": "adhesion of HT-1080 cells", "setting": "[1]; [4]", "value": "did not adhere"}
    ]},
    {"substance": "Ac-LysGlyGlyAsnGlyGluProArgGlyAspThrTyrArgAlaTyr-NH2 (Ac-KGGNGEPRGDTYRAY-NH2) [SEQ ID NO:4]", "values": [
      {"measurement": "AttoPhos fluorescence intensity (FI) compared to MATRIGEL control", "setting": "[2]; SEQ ID NO:4 conjugated to Formulation SA1A using 1000 μM solution, Xvivo10 + bFGF + TGFβ1, 48 hrs", "value": "56-60%"},
      {"measurement": "adhesion and growth of undifferentiated stem cells versus peptide concentration (AttoPhos)", "setting": "[2]; peptide at 1, 10, 100 and 1000 μM, formulation SA1A surfaces", "value": "peptide concentration dependent"},
      {"measurement": "support of culture of undifferentiated stem cells (AttoPhos)", "setting": "[2]", "value": "appeared to better support the culture of undifferentiated stem cells"}
    ]},
    {"substance": "Ac-LysGlyGlyCys^4AsnGlyGluProArgGlyAspThrTyrArgAlaTyrCys^17-NH2 (Ac-KGGCNGEPRGDTYRAYC-NH2; disulfide 4-17; SMILES CC(=O)N[C@@H](CCCCN)C(=O)NCC(=O)NCC(=O)N[C@H]1CSSC[C@@H](C(N)=O)NC(=O)[C@H](Cc2ccc(O)cc2)NC(=O)[C@H](C)NC(=O)[C@H](CCCNC(=N)N)NC(=O)[C@H](Cc2ccc(O)cc2)NC(=O)[C@H]([C@@H](C)O)NC(=O)[C@H](CC(=O)O)NC(=O)CNC(=O)[C@H](CCCNC(=N)N)NC(=O)[C@@H]2CCCN2C(=O)[C@H](CCC(=O)O)NC(=O)CNC(=O)[C@H](CC(N)=O)NC1=O) [SEQ ID NO:8]", "values": [
      {"measurement": "HT-1080 adhesion compared with linear BSP (SEQ ID NO:4)-conjugated (meth)acrylate", "setting": "[1]", "value": "supported HT-1080 adhesion similar to"}
    ]},
    {"substance": "Ac-LysGlyGlyCys^4GluProArgGlyAspThrTyrArgCys^17-NH2 (Ac-KGGCEPRGDTYRC-NH2; disulfide 4-13; SMILES CC(=O)N[C@@H](CCCCN)C(=O)NCC(=O)NCC(=O)N[C@H]1CSSC[C@@H](C(N)=O)NC(=O)[C@H](CCCNC(=N)N)NC(=O)[C@H](Cc2ccc(O)cc2)NC(=O)[C@H]([C@@H](C)O)NC(=O)[C@H](CC(=O)O)NC(=O)CNC(=O)[C@H](CCCNC(=N)N)NC(=O)[C@@H]2CCCN2C(=O)[C@H](CCC(=O)O)NC1=O) [SEQ ID NO:9]", "values": [
      {"measurement": "HT-1080 adhesion compared with linear BSP (SEQ ID NO:4)-conjugated (meth)acrylate", "setting": "[1]", "value": "supported HT-1080 adhesion similar to"}
    ]},
    {"substance": "Ac-LysGlyGlyLys^4AsnGlyGluProArgGlyAspThrTyrArgAlaTyrAsp^17-NH2 (Ac-KGGKNGEPRGDTYRAYD-NH2; lactam 4-17; SMILES CC(=O)N[C@@H](CCCCN)C(=O)NCC(=O)NCC(=O)N[C@H]1CCCCNC(=O)C[C@@H](C(N)=O)NC(=O)[C@H](Cc2ccc(O)cc2)NC(=O)[C@H](C)NC(=O)[C@H](CCCNC(=N)N)NC(=O)[C@H](Cc2ccc(O)cc2)NC(=O)[C@H]([C@@H](C)O)NC(=O)[C@H](CC(=O)O)NC(=O)CNC(=O)[C@H](CCCNC(=N)N)NC(=O)[C@@H]2CCCN2C(=O)[C@H](CCC(=O)O)NC(=O)CNC(=O)[C@H](CC(N)=O)NC1=O) [SEQ ID NO:6]", "values": [
      {"measurement": "HT-1080 adhesion compared with linear BSP (SEQ ID NO:4)-conjugated (meth)acrylate", "setting": "[1]", "value": "supported HT-1080 adhesion similarly to linear BSP-conjugated (meth)acrylates"}
    ]},
    {"substance": "Ac-LysGlyGlyLys^4GluProArgGlyAspThrTyrArgAsp^13-NH2 (Ac-KGGKEPRGDTYRD-NH2; lactam 4-13; SMILES CC(=O)N[C@@H](CCCCN)C(=O)NCC(=O)NCC(=O)N[C@H]1CCCCNC(=O)C[C@@H](C(N)=O)NC(=O)[C@H](CCCNC(=N)N)NC(=O)[C@H](Cc2ccc(O)cc2)NC(=O)[C@H]([C@@H](C)O)NC(=O)[C@H](CC(=O)O)NC(=O)CNC(=O)[C@H](CCCNC(=N)N)NC(=O)[C@@H]2CCCN2C(=O)[C@H](CCC(=O)O)NC1=O) [SEQ ID NO:7]", "values": [
      {"measurement": "HT-1080 adhesion compared with linear BSP (SEQ ID NO:4)-conjugated (meth)acrylate", "setting": "[1]", "value": "supported HT-1080 adhesion similarly to linear BSP-conjugated (meth)acrylates"}
    ]},
    {"substance": "Ac-LysTyrGlyArgLysArgLeuGlnValGlnLeuSerIleArgThr-NH2 (Ac-KYGRKRLQVQLSIRT-NH2) [AG-73]", "values": [
      {"measurement": "adhesion of HT-1080 cells", "setting": "[1]; 1 μM peptide solution used for conjugation", "value": "did not result in cell adhesive surface"},
      {"measurement": "adhesion of HT-1080 cells", "setting": "[1]; 10 μM peptide solution used for conjugation", "value": "resulted in an adhesive surface"},
      {"measurement": "adhesion of HT-1080 cells", "setting": "[1]; 100 μM peptide solution used for conjugation", "value": "resulted in an adhesive surface"},
      {"measurement": "adhesion of HT-1080 cells", "setting": "[1]; [4]", "value": "adhered specifically"}
    ]},
    {"substance": "GlyArgGlyAspSerProLys (GRGDSPK; Synthetic polypeptide including sequence derived from human fibronectin) [s-FN]", "values": [
      {"measurement": "support of culture of undifferentiated stem cells (AttoPhos)", "setting": "[2]", "value": "comparable in performance to the long fibronectin sequence"}
    ]},
    {"substance": "KGGGQKCIVQTTSWSQCSKS (cysteine pairing not given here) [SEQ ID NO:13]", "values": [
      {"measurement": "serum-free attachment of HepG2/C3A cells compared with CellBind treated Topas", "setting": "[3]", "value": "greater than CellBind® treated Topas™"}
    ]},
    {"substance": "KGGTWYKIAFQRNRK [SEQ ID NO:16]", "values": [
      {"measurement": "attachment of HepG2/C3A cells compared to Collagen I", "setting": "[3]", "value": "*CLS 01020 (Polypeptides exhibiting results better than 75% attachment compared to Collagen I (see FIG. 24) are marked with an asterix in Table 6)"},
      {"measurement": "serum-free attachment of HepG2/C3A cells compared with CellBind treated Topas", "setting": "[3]", "value": "greater than CellBind® treated Topas™"}
    ]},
    {"substance": "KYGKAFDITYVRLKF [SEQ ID NO:21]", "values": [
      {"measurement": "serum-free attachment of HepG2/C3A cells compared with CellBind treated Topas", "setting": "[3]", "value": "greater than CellBind® treated Topas™"}
    ]},
    {"substance": "KYGSETTVKYIFRLHE [SEQ ID NO:19]", "values": [
      {"measurement": "attachment of HepG2/C3A cells compared to Collagen I", "setting": "[3]", "value": "*CLS 01035 (Polypeptides exhibiting results better than 75% attachment compared to Collagen I (see FIG. 24) are marked with an asterix in Table 6)"},
      {"measurement": "serum-free attachment of HepG2/C3A cells compared with CellBind treated Topas", "setting": "[3]", "value": "greater than CellBind® treated Topas™"}
    ]}
  ]
}
